Literature values as cited in patent US20040167145A1, “Active ingredient combination for the pharmacological therapy of nicotine dependence” (priority 2001, published 2004).

Settings: clinical studies; compared with 8% for placebo

For CC(NC(C)(C)C)C(=O)c1cccc(Cl)c1 (stereo not shown) [bupropion], the 1-year abstinence rate is listed as 28%.
